Experimental data published in ChEMBL document CHEMBL1201861, “Genomics of Drug Sensitity in Cancer screening data, Wellcome Trust Sanger Institute”.

Key:
Test in all cases: cells
Conditions in all cases: Homo sapiens
[1] = system: COR-L88; type: functional, cell-based;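 also: growth inhibition of COR-L88 cells, read out with a cell viability assay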
Description: SANGER: Inhibition of human COR-L88 cell growth in a cell viability assay.

[2] = system: CTB-1; type: functional, cell-based
Description: SANGER: Inhibition of human CTB-1 cell growth in a cell viability assay.

[3] = system: D283 Med; type: functional, cell-based
Description: SANGER: Inhibition of human D-283MED cell growth in a cell viability assay.

[4] = system: DB; type: functional, cell-based
Description: SANGER: Inhibition of human DB cell growth in a cell viability assay.

[5] = system: ES1; type: functional, cell-based;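 also: growth inhibition of ES1 cells, read out with a cell viability assay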
Description: SANGER: Inhibition of human ES1 cell growth in a cell viability assay.

[6] = system: ES3; type: functional, cell-based;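 also: growth inhibition of ES3 cells, read out with a cell viability assay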
Description: SANGER: Inhibition of human ES3 cell growth in a cell viability assay.

[7] = system: ES6; type: functional, cell-based;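 also: growth inhibition of human ES6 cells, read out with a cell viability assay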
Description: SANGER: Inhibition of human ES6 cell growth in a cell viability assay.

[8] = system: ES8; type: functional, cell-based;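 also: growth inhibition of human ES8 cells, read out with a cell viability assay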
Description: SANGER: Inhibition of human ES8 cell growth in a cell viability assay.

[9] = system: EW-13; type: functional, cell-based;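 also: growth inhibition of EW-13 cells, read out with a cell viability assay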
Description: SANGER: Inhibition of human EW-13 cell growth in a cell viability assay.

[10] = system: EW-16; type: functional, cell-based;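 also: growth inhibition of human EW-16 cells, read out as cell viability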
Description: SANGER: Inhibition of human EW-16 cell growth in a cell viability assay.

[11] = system: EW-3; type: functional, cell-based;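 also: cell viability assay read-out, IC50 reflects inhibition of growth of the EW-3 cells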
Description: SANGER: Inhibition of human EW-3 cell growth in a cell viability assay.

[12] = system: GB-1; type: functional, cell-based;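 also: growth of GB-1 cells judged by a viability assay, IC50 marks the concentration inhibiting growth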
Description: SANGER: Inhibition of human GB-1 cell growth in a cell viability assay.

[13] = system: GI-1; type: functional, cell-based;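 also: growth inhibition of human GI-1 cells, measured with a cell viability readout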
Description: SANGER: Inhibition of human GI-1 cell growth in a cell viability assay.

[14] = system: GR-ST; type: functional, cell-based
Description: SANGER: Inhibition of human GR-ST cell growth in a cell viability assay.

[15] = system: HCE-4; type: functional, cell-based;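 also: cell viability assay measuring inhibition of growth in the human HCE-4 cell line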
Description: SANGER: Inhibition of human HCE-4 cell growth in a cell viability assay.

[16] = system: HDLM-2; type: functional, cell-based;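 also: cell viability assay measuring suppression of HDLM-2 proliferation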
Description: SANGER: Inhibition of human HDLM-2 cell growth in a cell viability assay.

[17] = system: HEL; type: functional, cell-based;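 also: growth inhibition of HEL cells, read out with a cell viability assay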
Description: SANGER: Inhibition of human HEL cell growth in a cell viability assay.

[18] = system: J-RT3-T3-5; type: functional, cell-based;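 also: cell viability assay measuring growth inhibition of human J-RT3-T3-5 cells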
Description: SANGER: Inhibition of human J-RT3-T3-5 cell growth in a cell viability assay.

[19] = system: JAR; type: functional, cell-based;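 also: growth inhibition of human JAR cells determined with a cell viability assay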
Description: SANGER: Inhibition of human JAR cell growth in a cell viability assay.

[20] = system: JVM-3; type: functional, cell-based;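 also: growth inhibition of human JVM-3 cells, read out with a cell viability assay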
Description: SANGER: Inhibition of human JVM-3 cell growth in a cell viability assay.

[21] = system: K5; type: functional, cell-based
Description: SANGER: Inhibition of human K5 cell growth in a cell viability assay.

[22] = system: KG-1; type: functional, cell-based;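 also: growth inhibition of KG-1 cells, read out by a cell viability assay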
Description: SANGER: Inhibition of human KG-1 cell growth in a cell viability assay.

[23] = system: KGN; type: functional, cell-based;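 also: growth inhibition of KGN cells, read out with a cell viability assay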
Description: SANGER: Inhibition of human KGN cell growth in a cell viability assay.

[24] = system: KM12; type: functional, cell-based;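 also: KM12 cell growth inhibition, read out with a cell viability assay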
Description: SANGER: Inhibition of human KM12 cell growth in a cell viability assay.

[25] = system: KP-N-YS; type: functional, cell-based;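 also: cell viability assay measuring inhibition of cell line growth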
Description: SANGER: Inhibition of human KP-N-YS cell growth in a cell viability assay.

[26] = system: LB1047-RCC; type: functional, cell-based;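 also: inhibition of cell growth, determined with a cell viability assay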
Description: SANGER: Inhibition of human LB1047-RCC cell growth in a cell viability assay.

[27] = system: LB771-HNC; type: functional, cell-based;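 also: growth inhibition of LB771-HNC human cells, read out with a cell viability assay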
Description: SANGER: Inhibition of human LB771-HNC cell growth in a cell viability assay.

[28] = system: LB831-BLC; type: functional, cell-based;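 also: growth inhibition of LB831-BLC cells, read out with a cell viability assay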
Description: SANGER: Inhibition of human LB831-BLC cell growth in a cell viability assay.

[29] = system: LOX IMVI; type: functional, cell-based
Description: SANGER: Inhibition of human LOXIMVI cell growth in a cell viability assay.

[30] = system: LS-411N; type: functional, cell-based
[31] = system: MFH-ino; type: functional, cell-based;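 also: growth inhibition of human MFH-ino cells, read out by a cell viability assay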
Description: SANGER: Inhibition of human MFH-ino cell growth in a cell viability assay.

[32] = system: MOLT-16; type: functional, cell-based;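 also: growth inhibition of human MOLT-16 cells, read out with a cell viability assay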
Description: SANGER: Inhibition of human MOLT-16 cell growth in a cell viability assay.

[33] = system: MOLT-4; type: functional, cell-based;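 also: growth inhibition of MOLT-4 cells, determined with a cell viability readout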
Description: SANGER: Inhibition of human MOLT-4 cell growth in a cell viability assay.

[34] = system: MS-1; type: functional, cell-based;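 also: growth inhibition of MS-1 cells, read out by cell viability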
Description: SANGER: Inhibition of human MS-1 cell growth in a cell viability assay.

[35] = system: MV4-11; type: functional, cell-based, MV-4-11;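 also: cell viability readout measuring growth inhibition of human MV-4-11 cells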
Description: SANGER: Inhibition of human MV-4-11 cell growth in a cell viability assay.

[36] = system: MZ1-PC; type: functional, cell-based;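 also: cell viability assay measuring growth inhibition of human MZ1-PC cells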
Description: SANGER: Inhibition of human MZ1-PC cell growth in a cell viability assay.

[37] = system: MZ7-mel; type: functional, cell-based;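 also: growth inhibition of human MZ7-mel cells, measured by a cell viability assay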
Description: SANGER: Inhibition of human MZ7-mel cell growth in a cell viability assay.

[38] = system: NB69; type: functional, cell-based;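 also: growth inhibition of NB69 cells, determined by a cell viability assay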
Description: SANGER: Inhibition of human NB69 cell growth in a cell viability assay.

[39] = system: NCI-H1355; type: functional, cell-based;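 also: growth inhibition of human NCI-H1355 cells, read out by a cell viability assay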
Description: SANGER: Inhibition of human NCI-H1355 cell growth in a cell viability assay.

[40] = system: NCI-H1581; type: functional, cell-based;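 also: cell growth inhibition read out by a viability assay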
Description: SANGER: Inhibition of human NCI-H1581 cell growth in a cell viability assay.

[41] = system: NCI-H1648; type: functional, cell-based;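 also: cell viability assay measuring inhibition of NCI-H1648 cell growth, from the Sanger screening data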
Description: SANGER: Inhibition of human NCI-H1648 cell growth in a cell viability assay.

[42] = system: NCI-H1838; type: functional, cell-based;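 also: growth inhibition of NCI-H1838 cells, determined with a cell viability readout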
Description: SANGER: Inhibition of human NCI-H1838 cell growth in a cell viability assay.

[43] = system: NCI-H209; type: functional, cell-based;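 also: growth inhibition of human NCI-H209 cells, measured by a cell viability assay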
Description: SANGER: Inhibition of human NCI-H209 cell growth in a cell viability assay.

[44] = system: NCI-H526; type: functional, cell-based;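 also: growth inhibition of the human NCI-H526 cell line, measured by a cell viability assay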
Description: SANGER: Inhibition of human NCI-H526 cell growth in a cell viability assay.

[45] = system: NMC-G1; type: functional, cell-based;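 also: growth inhibition of the NMC-G1 cell line, measured with a cell viability read-out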
Description: SANGER: Inhibition of human NMC-G1 cell growth in a cell viability assay.

[46] = system: RKO; type: functional, cell-based;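 also: growth inhibition of human RKO cells, read out with a cell viability assay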
Description: SANGER: Inhibition of human RKO cell growth in a cell viability assay.

[47] = system: RPMI-8226; type: functional, cell-based
Description: SANGER: Inhibition of human RPMI-8226 cell growth in a cell viability assay.

[48] = system: SBC-1; type: functional, cell-based;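 also: cell viability assay measuring growth inhibition of the SBC-1 cell line, IC50 being the concentration that halves growth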
Description: SANGER: Inhibition of human SBC-1 cell growth in a cell viability assay.

[49] = system: SCC-15; type: functional, cell-based;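 also: growth inhibition of SCC-15 cells, read out with a cell viability assay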
Description: SANGER: Inhibition of human SCC-15 cell growth in a cell viability assay.

[50] = system: SK-MEL-1; type: functional, cell-based;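 also: growth inhibition of human SK-MEL-1 cells, read out by a cell viability assay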
Description: SANGER: Inhibition of human SK-MEL-1 cell growth in a cell viability assay.

[51] = system: SK-PN-DW; type: functional, cell-based;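 also: growth inhibition measured with a viability assay on these cells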
Description: SANGER: Inhibition of human SK-PN-DW cell growth in a cell viability assay.

[52] = system: SW 954; type: functional, cell-based;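 also: growth inhibition of SW954 human cancer cells, read out as cell viability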
Description: SANGER: Inhibition of human SW954 cell growth in a cell viability assay.

[53] = system: TE-1; type: functional, cell-based;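 also: growth inhibition of the human TE-1 cell line, read out with a cell viability assay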
Description: SANGER: Inhibition of human TE-1 cell growth in a cell viability assay.

[54] = system: 697; type: functional, cell-based
Description: SANGER: Inhibition of human 697 cell growth in a cell viability assay.

[55] = system: A388; type: functional, cell-based;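 also: growth inhibition of human A388 cells, read out with a cell viability assay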
Description: SANGER: Inhibition of human A388 cell growth in a cell viability assay.

[56] = system: A4-Fuk; type: functional, cell-based;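 also: growth inhibition of A4-Fuk cells, read out by a cell viability assay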
Description: SANGER: Inhibition of human A4-Fuk cell growth in a cell viability assay.

[57] = system: ACN; type: functional, cell-based;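 also: growth inhibition of the human ACN cell line, read out via cell viability testing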
Description: SANGER: Inhibition of human ACN cell growth in a cell viability assay.

[58] = system: BB49-HNC; type: functional, cell-based;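 also: cell viability assay read-out, reported as inhibition of BB49-HNC cell growth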
Description: SANGER: Inhibition of human BB49-HNC cell growth in a cell viability assay.

[59] = system: C2BBe1; type: functional, cell-based
Description: SANGER: Inhibition of human C2BBe1 cell growth in a cell viability assay.

[60] = system: TE-11; type: functional, cell-based
Description: SANGER: Inhibition of human TE-11 cell growth in a cell viability assay.

[61] = system: TE-5; type: functional, cell-based
Description: SANGER: Inhibition of human TE-5 cell growth in a cell viability assay.

[62] = system: TE-6; type: functional, cell-based
Description: SANGER: Inhibition of human TE-6 cell growth in a cell viability assay.

[63] = system: TE-9; type: functional, cell-based
Description: SANGER: Inhibition of human TE-9 cell growth in a cell viability assay.

[64] = system: U-266; type: functional, cell-based
Description: SANGER: Inhibition of human U-266 cell growth in a cell viability assay.

[65] = system: CGTH-W-1; type: functional, cell-based
Description: SANGER: Inhibition of human CGTH-W-1 cell growth in a cell viability assay.

[66] = system: COLO-684; type: functional, cell-based
Description: SANGER: Inhibition of human COLO-684 cell growth in a cell viability assay.

N#C/C(=C1/Nc2ccccc2S1)c1ccnc(NCCc2cccnc2)n1
IC50 [1]: > 8 µM
IC50 [2]: > 8 µM
IC50 [3]: > 8 µM
IC50 [4]: > 8 µM
IC50 [5]: > 8 µM
IC50 [6]: > 8 µM
IC50 [7]: 4.72 µM
IC50 [8]: > 8 µM
IC50 [9]: > 8 µM
IC50 [10]: 5.01 µM
IC50 [11]: > 8 µM
IC50 [12]: > 8 µM
IC50 [13]: 3.71 µM
IC50 [14]: > 8 µM
IC50 [15]: > 8 µM
IC50 [16]: > 8 µM
IC50 [17]: 7.08 µM
IC50 [18]: > 8 µM
IC50 [19]: > 8 µM
IC50 [20]: > 8 µM
IC50 [21]: > 8 µM
IC50 [22]: > 8 µM
IC50 [23]: 5.85 µM
IC50 [24]: > 8 µM
IC50 [25]: > 8 µM
IC50 [26]: 1.68 µM
IC50 [27]: > 8 µM
IC50 [28]: 5.69 µM
IC50 [29]: > 8 µM
IC50 [30]: > 8 µM
IC50 [31]: > 8 µM
IC50 [32]: 1.38 µM
IC50 [33]: > 8 µM
IC50 [34]: > 8 µM
IC50 [35]: 1.43 µM
IC50 [36]: > 8 µM
IC50 [37]: > 8 µM
IC50 [38]: > 8 µM
IC50 [39]: 1.11 µM
IC50 [40]: > 8 µM
IC50 [41]: > 8 µM
IC50 [42]: > 8 µM
IC50 [43]: > 8 µM
IC50 [44]: > 8 µM
IC50 [45]: 6.12 µM
IC50 [46]: 2.31 µM
IC50 [47]: > 8 µM
IC50 [48]: > 8 µM
IC50 [49]: > 8 µM
IC50 [50]: > 8 µM
IC50 [51]: > 8 µM
IC50 [52]: > 8 µM
IC50 [53]: > 8 µM
IC50 [54]: > 8 µM
IC50 [55]: > 8 µM
IC50 [56]: > 8 µM
IC50 [57]: > 8 µM
IC50 [58]: 1.39 µM
IC50 [59]: > 8 µM
IC50 [60]: 0.3 µM
IC50 [61]: > 8 µM
IC50 [62]: > 8 µM
IC50 [63]: 6.49 µM
IC50 [64]: > 8 µM
IC50 [65]: 5.54 µM
IC50 [66]: > 8 µM
